Data set [1] concerns preadipocytes / differentiating adipocytes. Briefly: Adipocyte differentiation assay, markers taken together. The format is cell-based, human. As to conditions: for expression levels of markers of adipocyte differentiation (TG, leptin, aP2, HSL, Glut4, PPARγ): preadipocytes, 250 nM, day nine post-transfection, relative to ISIS-29848; for five markers of adipocyte differentiation: % of UTC (Table 55); for 5 markers of adipocyte differentiation: % of UTC (Table 75). As for the experimental part:
Oligomeric compounds of the invention are tested for their effects on preadipocyte differentiation. […] For the other adipocyte differentiation markers assayed, an oligomeric compound targeted to PPAR-γ, also known to inhibit adipocyte differentiation, may be used as a positive control.
Cells are transfected as described herein. […] Untreated control cells receive LIPOFECTIN™ only.
After the cells have reach confluence (approximately three days), they are exposed for an additional three days to differentiation medium (Zen-Bio, Inc., Research Triangle Park, N.C.) containing a PPAR-γ agonist, IBMX, dexamethasone, and insulin. Cells are then fed adipocyte medium (Zen-Bio, Inc.), which is replaced at 2 or 3 day intervals.
For assaying adipocyte differentiation, expression of the four hallmark genes, HSL, aP2, Glut4, and PPARγ, as well as triglyceride (TG) accumulation and leptin secretion were measured in adipocytes transfected with the uniform 2′-MOE phosphorothioate (PS) oligomeric compounds previously described. Cells are lysed on day nine post-transfection, in a guanadinium-containing buffer and total RNA is harvested. Real-time PCR is performed (Applied Biosystems, Prism 7700) on the total RNA using the following primer/probe sets for the adipocyte differentiation hallmark genes: (aP2): forward 5′-GGTGGTGGAATGCGTCATG-3′ (SEQ ID NO: 746), reverse 5′-[…]-3′ (SEQ ID NO: 747), probe 5′-FAM-[…]-TAMRA-3′ (SEQ ID NO: 748); (Glut4): forward 5′-GGCCTCCGCAGGTTCTG-3′ (SEQ ID NO: 749), reverse 5′-[…]-3′ (SEQ ID NO: 750), probe 5′-FAM-[…]-TAMRA-3′ (SEQ ID NO: 751); (HSL): forward 5′-ACCTGCGCACAATGACACA-3′ (SEQ ID NO: 752), reverse 5′-[…]-3′ (SEQ ID NO: 753), probe 5′-FAM-[…]-TAMRA-3′ (SEQ ID NO: 754); (PPAR-γ): forward 5′-[…]-3′ (SEQ ID NO: 755), reverse 5′-[…]-3′ (SEQ ID NO: 756), probe 5′-FAM-[…]-TAMRA-3′ (SEQ ID NO: 757). The amount of total RNA in each sample is determined using a Ribogreen Assay (Molecular Probes, Eugene, Oreg.), and expression levels of the adipocyte differentiation hallmark genes were normalized to total RNA. Leptin protein and triglyceride levels as well as mRNA levels for each of the four adipocyte differentiation hallmark genes are expressed relative to control levels (control=treatment with ISIS-29848 (SEQ ID NO: 737)).
In some embodiments, differentiating adipocytes were treated with uniform 2′-MOE phosphorothioate oligomeric compounds according to the methods described above, and the expression of the four hallmark genes, HSL, aP2, Glut4, and PPARγ, as well as triglyceride (TG) accumulation were measured. […] Undifferentiated adipocytes were also compared as a negative control. […] The effects of TNF-α, also known to inhibit adipocyte differentiation, were also measured.

For the next data set, the system named is PPARγ. Briefly: PPARγ mRNA expression in adipocytes (real-time PCR). The format is cell-based, human. The note with it: preadipocytes, 250 nM, day nine. For orientation: In qPCR the cycle at which signal appears reflects the starting amount.
The subject of data set [2] is BJ, B16-F10, T47D, T47Dp53 and HeLa cells. Briefly: Cell cycle assay (propidium iodide flow cytometry), cell line panel. As to conditions: 150 nM, 72 hours (Table 29). The format is cell-based. In general terms: In flow cytometry, cells or beads pass a laser one at a time.
A further data set concerns HeLa cells. Briefly: Cell cycle assay in HeLa cells. As to conditions: HeLa, 150 nM. The format is cell-based, human.
The test system of the next data set is HuVECs. The data set can be described thus: Endothelial tube formation assay in HuVECs. As to conditions: 75 nM.
The subject of a further data set is T47D cells. Briefly: Caspase-3 activity assay (apoptosis) in T47D cells. The note with it: caspase assay, 200 nM; conclusion from Tables 9-12.
For a further data set, the system named is PEPCK-c. The data set can be described thus: PEPCK-c mRNA expression in HepG2 cells. The data set is classed as cell-based, human. The note with it: HepG2, 1 nM insulin, 100 nM.

This note sets out measurements from US8178506B2, “Oligomeric compounds and compositions for use in modulation of small non-coding RNAs” (Regulus Therapeutics Inc., priority 2003, dated 2012).

Entries after “also recorded” stand apart in the source; their conditions may differ. In the oligonucleotide strings, read from the 5' end, every base follows the letter of its sugar. An asterisk marks phosphorothioate; unmarked linkages are phosphodiester. Other units and linkages are bracketed, terminal groups are in braces. A string of capitals states the bases alone. e = 2'-O-(2-methoxyethyl) (MOE); [5mC] = 5-methylcytosine; d = 2'-deoxy (DNA)

Take “AACCATACAACCTACTACCTCA (chemistry not given here) [ISIS 327931, uniform 2′-MOE PS; targets let-7c]”: the “expression levels of markers of adipocyte differentiation (TG, leptin, aP2, HSL, Glut4, PPARγ)” value in data set [1] is given as “increase in four out of six markers of adipocyte differentiation; also recorded: increase in expression levels for several markers of adipocyte differentiation”. Moreover, in the data set on PPARγ, the “expression of PPAR-γ” value is “significant increase in the expression of PPAR-γ”. “AAGGGATTCCTGGGAAAACTGGAC (chemistry not given here) [ISIS 327933, uniform 2′-MOE PS; targets mir-145]”: in data set [1], the “expression levels of markers of adipocyte differentiation (TG, leptin, aP2, HSL, Glut4, PPARγ)” value is “increase in all six markers of adipocyte differentiation”. In addition, the “percentage of cells in the G2/M phase” value in data set [2] is recorded as “increased percentage of cells in the G2/M phase”. The “phase of the cell cycle in which cells arrest or delay” value in the data set on HeLa cells (24 hours) is on record as “G2/M-phase”; with HeLa cells (48 hours) it was “subG1-phase”. On to “AACCGATTTCAGATGGTGCTAG (anti-miR; chemistry not fully specified) [ISIS 327928]”, for which, in data set [1] (differentiating adipocytes), the “five markers of adipocyte differentiation” value is on record as “reduce the expression levels of all five markers of adipocyte differentiation”. Besides, the tube formation result in the data set with HuVECs is listed as “suppressed tube formation”. In the case of “CTACCTGCACGAACAGCACTTT (chemistry not given here) [ISIS 340348, uniform 2′-MOE PS; targets mir-93]”, the “5 markers of adipocyte differentiation” value in data set [1] (differentiating adipocytes) is “significantly reduce the expression levels of 3 of the 5 markers of adipocyte differentiation”. For the same substance, in data set [2], the “percentage of cells with hypodiploid DNA content (subG1)” value is recorded as “increased percentage of cells with hypodiploid DNA content”.

Take “GTCTGTCAATTCATAGGTCAT (chemistry not given here) [ISIS 327960, uniform 2′-MOE PS; targets mir-215]”: the “five markers of adipocyte differentiation” value in data set [1] (differentiating adipocytes) is recorded as “reduce the expression levels of all five markers of adipocyte differentiation”. Consider “CCAAGTGTTAGAGCAAGATCA (anti-miR; chemistry not fully specified) [ISIS 328126, uniform 2′-MOE PS; targets hypothetical miRNA-170]”, for which the “5 markers of adipocyte differentiation” value in data set [1] (differentiating adipocytes) is recorded as “increases in 4 of the 5 markers of adipocyte differentiation”. In the case of “ISIS 348127: SEQ ID NO: 1869, targeted to mir-27b (antisense GCAGAACUUAGCCACUGUGAA; all 2'-MOE, all phosphorothioate, methylation of C and T or U not given here)”, the “5 markers of adipocyte differentiation” value in data set [1] (differentiating adipocytes) is given as “significant increases in all 5 markers of adipocyte differentiation”.

For “ISIS 328400: 5-10-5 2′-MOE gapmer PS; targets mir-196-2 pri-miRNA (eA*eG*eT*eT*e[5mC]*dA*dA*dA*dA*d[5mC]*dT*d[5mC]*dA*dA*dT*e[5mC]*e[5mC]*e[5mC]*eA*eA)”, the “five markers of adipocyte differentiation” value in data set [1] (differentiating adipocytes) is given as “reduce the expression levels of all five markers of adipocyte differentiation”. The “apoptosis in T47D cells” value with T47D cells is reported as “induce apoptosis”. For “CCCAACAACATGAAACTACCTA (chemistry not given here) [ISIS 327909, uniform 2′-MOE PS; targets mir-196-2]”, the “five markers of adipocyte differentiation” value in data set [1] (differentiating adipocytes) is “increase in three of the five markers of adipocyte differentiation”. For the substance “CAGACTCCCAACTGACCAGA (chemistry not fully specified) [ISIS 328382, 5-10-5 2′-MOE gapmer PS; targets the mir-143 pri-miRNA]”, the “expression of the adipocyte differentiation markers, compounds targeting mir-143 miRNA or pri-miRNA compared” value in data set [1] (preadipocytes (Table 20)) is on record as “more effective in blocking adipocyte differentiation”. For the substance “ISIS 341798: SEQ ID NO: 1871, targeted to mir-123/mir-126 (antisense GCAUUAUUACUCACGGUACGA; all 2'-MOE, all phosphorothioate, methylation of C and T or U not given here)”, in data set [1] (differentiating adipocytes), the “5 markers of adipocyte differentiation” value is “significantly reduce the expression levels of 3 of the 5 markers of adipocyte differentiation”. Consider “ACTCACCGACAGCGTTGAATGTT (chemistry not given here) [ISIS 327904, uniform 2′-MOE PS; targets mir-181a]”, for which the “five markers of adipocyte differentiation” value in data set [1] (differentiating adipocytes) was “reduce the expression levels of all five markers of adipocyte differentiation”. For the substance “AATCTCATTTTCATACTTGCA (anti-miR; chemistry not fully specified) [ISIS 328114, uniform 2′-MOE PS; targets hypothetical miRNA-138]”, in data set [1] (differentiating adipocytes), the “five markers of adipocyte differentiation” value is reported as “increase in all five markers of adipocyte differentiation”. In the data set on PEPCK-c, the “reduction of PEPCK-c mRNA expression” value is listed as 59%. On to “ISIS 346685: SEQ ID NO: 1884, targeted to mir-27 (Mourelatos) (antisense GGCGGAACUUAGCCACUGUGAA; all 2'-MOE, all phosphorothioate, methylation of C and T or U not given here)”, for which the “5 markers of adipocyte differentiation” value in data set [1] (differentiating adipocytes) is given as “significant increases in all 5 markers of adipocyte differentiation”.

As to “AACTACTTCCAGAGCAGGTGA (anti-miR; chemistry not fully specified) [ISIS 328136, uniform 2′-MOE PS; targets hypothetical miRNA-181]”, the “expression of the other four hallmark genes (HSL, aP2, Glut4, PPARγ)” value in data set [1] (differentiating adipocytes, control ISIS 342673) was “reduction of expression of the other four hallmark genes”. In the case of “ISIS 340352: SEQ ID NO: 1821, targeted to mir-99 (Mourelatos) (CACAAGAUCGGAUCUACGGGUU; all 2'-MOE, all phosphorothioate, methylation of C and T or U not given here)”, the “5 markers of adipocyte differentiation” value in data set [1] (differentiating adipocytes) is listed as “increases in 4 of the 5 markers of adipocyte differentiation”.
